The target of data set [1] is T1, Sodium channel protein type 9 subunit alpha (Homo sapiens, UniProt Q15858). Nature of the data set: Inhibitory constant against voltage-gated sodium channel Nav1.7 in electrophysiology assays (EP). The format is functional.
Data set [2] deals with T1, Sodium channel protein type 9 subunit alpha. Put plainly: In vitro inhibitory concentration against voltage-gated sodium channel Nav1.7 in voltage-ion-probe-reader (VIPR) assay. The format is functional.
Data set [3] in a line: Bioavailability in rat. It is filed as ADME, organism-based. As to conditions: in vivo.
Data set [4] can be described thus: Clearance value of the compound was determined in plasma of rat. The format is ADME, organism-based. The conditions noted are these: read-out: Clp.
Data set [5] is described as follows: Half life period of the compound was determined in rat. It is filed as ADME. As to conditions: in vivo.

The source of these data is ChEMBL document CHEMBL1143509, “Novel cyclopentane dicarboxamide sodium channel blockers as a potential treatment for chronic pain” (Bioorg Med Chem Lett, 2005).

T1 sequence (Q15858 whole entry): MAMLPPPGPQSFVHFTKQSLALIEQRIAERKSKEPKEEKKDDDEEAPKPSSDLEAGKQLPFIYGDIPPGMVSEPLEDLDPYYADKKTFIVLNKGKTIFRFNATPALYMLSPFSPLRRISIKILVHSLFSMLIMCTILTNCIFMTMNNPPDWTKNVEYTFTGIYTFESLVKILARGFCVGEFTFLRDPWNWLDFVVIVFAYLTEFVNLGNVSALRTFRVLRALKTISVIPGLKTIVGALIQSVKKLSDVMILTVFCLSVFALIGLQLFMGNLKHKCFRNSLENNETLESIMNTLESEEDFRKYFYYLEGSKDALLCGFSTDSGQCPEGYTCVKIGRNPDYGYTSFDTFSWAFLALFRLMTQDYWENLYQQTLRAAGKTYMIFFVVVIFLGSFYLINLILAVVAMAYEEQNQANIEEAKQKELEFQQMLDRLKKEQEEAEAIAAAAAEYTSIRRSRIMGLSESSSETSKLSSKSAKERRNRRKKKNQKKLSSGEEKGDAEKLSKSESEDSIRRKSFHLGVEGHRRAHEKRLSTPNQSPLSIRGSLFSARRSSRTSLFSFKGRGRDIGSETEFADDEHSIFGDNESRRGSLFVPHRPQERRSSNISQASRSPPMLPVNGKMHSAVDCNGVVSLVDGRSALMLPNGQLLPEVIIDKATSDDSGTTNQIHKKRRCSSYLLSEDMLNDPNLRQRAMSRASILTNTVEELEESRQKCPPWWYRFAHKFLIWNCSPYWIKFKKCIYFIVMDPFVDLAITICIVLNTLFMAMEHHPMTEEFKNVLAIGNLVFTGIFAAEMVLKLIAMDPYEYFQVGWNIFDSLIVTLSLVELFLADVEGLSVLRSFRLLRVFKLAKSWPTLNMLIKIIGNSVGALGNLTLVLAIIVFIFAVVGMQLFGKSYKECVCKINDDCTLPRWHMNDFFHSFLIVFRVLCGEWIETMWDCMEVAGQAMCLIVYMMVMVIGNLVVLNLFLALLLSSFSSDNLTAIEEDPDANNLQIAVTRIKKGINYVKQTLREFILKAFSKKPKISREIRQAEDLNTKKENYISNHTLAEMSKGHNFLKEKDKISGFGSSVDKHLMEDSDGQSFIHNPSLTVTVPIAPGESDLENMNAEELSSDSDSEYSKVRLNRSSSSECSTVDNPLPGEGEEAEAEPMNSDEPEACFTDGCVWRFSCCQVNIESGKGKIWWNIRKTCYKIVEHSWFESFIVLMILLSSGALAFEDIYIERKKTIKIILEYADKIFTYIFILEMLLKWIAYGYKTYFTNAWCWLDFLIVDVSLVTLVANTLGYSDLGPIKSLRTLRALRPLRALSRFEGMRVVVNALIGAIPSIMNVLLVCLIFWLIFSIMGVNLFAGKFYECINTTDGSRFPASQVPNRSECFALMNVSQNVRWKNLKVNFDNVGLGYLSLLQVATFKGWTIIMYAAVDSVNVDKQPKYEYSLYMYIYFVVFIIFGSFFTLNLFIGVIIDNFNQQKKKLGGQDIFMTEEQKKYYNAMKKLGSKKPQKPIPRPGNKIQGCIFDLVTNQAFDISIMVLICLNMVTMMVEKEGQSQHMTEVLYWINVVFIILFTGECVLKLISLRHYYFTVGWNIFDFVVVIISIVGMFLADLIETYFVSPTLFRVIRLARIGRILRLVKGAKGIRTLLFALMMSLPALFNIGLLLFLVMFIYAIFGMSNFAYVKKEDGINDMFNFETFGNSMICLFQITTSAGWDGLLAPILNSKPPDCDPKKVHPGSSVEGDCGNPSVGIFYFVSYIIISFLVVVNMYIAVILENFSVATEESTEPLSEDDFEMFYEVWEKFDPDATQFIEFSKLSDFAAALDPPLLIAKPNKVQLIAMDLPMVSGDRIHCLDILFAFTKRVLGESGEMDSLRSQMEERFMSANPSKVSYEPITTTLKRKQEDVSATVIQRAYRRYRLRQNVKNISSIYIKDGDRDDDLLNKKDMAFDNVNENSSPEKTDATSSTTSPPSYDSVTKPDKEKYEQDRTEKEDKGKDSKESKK

In the case of `NS(=O)(=O)c1ccccc1-c1ccc(CNC(=O)/C=C\C(=O)NCc2ccc(-c3cccs3)s2)cc1`, the Ki (as a rule, the dissociation constant of the complex between target and ligand, obtained from inhibition or displacement) in data set [1] is 0.41 µM. In addition, the IC50 (commonly the concentration that gives 50% inhibition) in data set [2] is 0.52 µM.
On to `CN(Cc1ccc(-c2ccccc2S(N)(=O)=O)cc1)C(=O)CCC(=O)NCc1cccc(OC(F)(F)F)c1`, for which the bioavailability (as a rule, the share of a dose that reaches the circulation, judged against a reference dose that is usually intravenous) in data set [3] is 27%. Besides, the clearance in data set [4] came out at 141 mL/min/kg. The half-life – broadly, the time in which the quantity being followed falls by half – in data set [5] is 30 min.
For `CC(C(=O)NCc1ccc(-c2ccccc2S(N)(=O)=O)cc1)C(C)C(=O)NCc1ccc(-c2cccs2)s1` (stereo not drawn), in data set [2], the half-maximal inhibitory concentration (IC50) came out at 1.4 µM.
As for `NS(=O)(=O)c1ccccc1-c1ccc(CNC(=O)c2cccc(C(=O)NCc3ccc(-c4cccs4)s3)c2)cc1`, the Ki in data set [1] stood at 6.2 µM. The compound also showed an IC50 in data set [2] of 2.9 µM.
`NS(=O)(=O)c1ccccc1-c1ccc(CNC(=O)CC(=O)NCc2ccc(-c3cccs3)s2)cc1`: the IC50 in data set [2] worked out at 0.86 µM.
The same measure, in the same setting: for `NS(=O)(=O)c1ccccc1-c1ccc(CNC(=O)CCCC(=O)NCc2ccc(-c3cccs3)s2)cc1` the value was 3.2 µM.
`NS(=O)(=O)c1ccccc1-c1ccc(CNC(=O)c2ccccc2C(=O)NCc2ccc(-c3cccs3)s2)cc1` yielded a Ki in data set [1] of 0.14 µM. Moreover, in data set [2], the IC50 was 2.2 µM.
Compound `NS(=O)(=O)c1ccccc1-c1ccc(CNC(=O)CCC(=O)NCc2ccc(-c3cccs3)s2)cc1` yielded a bioavailability in data set [3] of 1.9%. Moreover, the clearance in data set [4] is 68 mL/min/kg. The compound also gave a half-life in data set [5] of 30 min. The Ki in data set [1] is 0.15 µM. This compound had an IC50 in data set [2] of 0.15 µM.
On to `CC(C)(CC(=O)NCc1ccc(-c2ccccc2S(N)(=O)=O)cc1)C(=O)NCc1ccc(-c2cccs2)s1`, for which, in data set [2], the IC50 turned out to be 2.3 µM.
On the same count and under the same terms, with `CC(NC(=O)[C@H]1CCC[C@@H]1C(=O)NCc1ccc(-c2ccccc2S(N)(=O)=O)cc1)c1ccc(-c2cccs2)s1` (mixture of isomers) the figure was 10 µM.
Compound `CC(NC(=O)[C@H]1CCC[C@@H]1C(=O)NCc1ccc(-c2cccs2)s1)c1ccc(-c2ccccc2S(N)(=O)=O)cc1` (mixture of isomers) had a Ki in data set [1] of 0.05 µM. In data set [2], this compound displayed an IC50 of 1.4 µM.
For `CC(NC(=O)[C@H]1CCC[C@@H]1C(=O)N(C)Cc1ccc(-c2ccccc2S(N)(=O)=O)cc1)c1ccc(-c2cccs2)s1` (mixture of isomers), it took 10 µM to reach half-maximal inhibition in data set [2] (IC50).
Still for that read-out and setting: for `CN(Cc1ccc(-c2cccs2)s1)C(=O)[C@H]1CCC[C@@H]1C(=O)NCc1ccc(-c2ccccc2S(N)(=O)=O)cc1` (racemic) the value was 5.3 µM.
For the compound `CN(Cc1ccc(-c2ccccc2S(N)(=O)=O)cc1)C(=O)[C@H]1CCC[C@@H]1C(=O)NCc1ccc(C(F)(F)F)cc1` (racemic), affinity in data set [1] was put at a Ki of 0.28 µM. The compound further had an IC50 in data set [2] of 2.5 µM.
Turning to `CN(Cc1ccc(-c2ccccc2S(N)(=O)=O)cc1)C(=O)[C@H]1CCC[C@@H]1C(=O)N(C)Cc1ccc(-c2cccs2)s1` (racemic), the 50% inhibitory concentration (IC50) in data set [2] is > 10 µM.
`NS(=O)(=O)c1ccccc1-c1ccc(CNC(=O)[C@H]2CCC[C@@H]2C(=O)NCc2ccc(-c3cccs3)s2)cc1` (racemic): the bioavailability in data set [3] turned out to be 1.2%. Besides, the clearance in data set [4] was determined as 39 mL/min/kg. In data set [5], this compound gave a half-life of 18 min. This compound showed a Ki in data set [1] of 0.06 µM. The IC50 in data set [2] is 0.37 µM.
Compound `NS(=O)(=O)c1ccccc1-c1ccc(CNC(=O)[C@H]2CCC[C@@H]2C(=O)NCc2ccccc2)cc1` (racemic) showed an IC50 in data set [2] of 5 µM.
The same measure, in the same setting: for `NS(=O)(=O)c1ccccc1-c1ccc(CNC(=O)[C@H]2CCC[C@@H]2C(=O)NCc2cccc(OC(F)(F)F)c2)cc1` (racemic) the value was 1.1 µM; for `CN(Cc1ccc(-c2ccccc2S(N)(=O)=O)cc1)C(=O)[C@H]1CCC[C@@H]1C(=O)NCc1ccccc1` (racemic), > 10 µM.
The same measure, in the same setting: with `NS(=O)(=O)c1ccccc1-c1ccc(CNC(=O)[C@H]2CC[C@@H]2C(=O)NCc2ccc(-c3cccs3)s2)cc1` (racemic) the figure was 0.21 µM.
Take `NS(=O)(=O)c1ccccc1-c1ccc(CNC(=O)[C@H]2CCC[C@@H]2C(=O)NCc2ccc(-c3ccccc3C(F)(F)F)cc2)cc1` (racemic): the inhibition constant (Ki) in data set [1] was 0.51 µM. Moreover, 0.37 µM corresponded to half-maximal inhibition in data set [2] (IC50).
The compound `NS(=O)(=O)c1ccccc1-c1ccc(CNC(=O)[C@H]2CCC[C@@H]2C(=O)NCc2ccc(OC(F)(F)F)cc2)cc1` (racemic) returned a Ki in data set [1] of 0.36 µM. Moreover, the half-maximal inhibitory concentration (IC50) in data set [2] was found to be 0.3 µM.
In turn, `COc1ccccc1-c1ccc(CNC(=O)[C@H]2CCC[C@@H]2C(=O)NCc2ccc(-c3ccccc3S(N)(=O)=O)cc2)cc1` (racemic) returned a Ki in data set [1] of 0.69 µM. The compound also showed an IC50 in data set [2] of 0.66 µM.
The corresponding values for `Cc1ccccc1-c1ccc(CNC(=O)[C@H]2CCC[C@@H]2C(=O)NCc2ccc(-c3ccccc3S(N)(=O)=O)cc2)cc1` (racemic) are 0.37 µM and 2.1 µM.
The corresponding values for `CN(Cc1ccc(-c2ccccc2S(N)(=O)=O)cc1)C(=O)[C@H]1CCC[C@@H]1C(=O)NCc1cccc(OC(F)(F)F)c1` (racemic) are 0.53 µM and 1.3 µM.
In the case of `C=C1[C@H](C(=O)NCc2ccc(-c3ccccc3S(N)(=O)=O)cc2)[C@H]1C(=O)NCc1ccc(-c2cccs2)s1` (racemic), affinity in data set [1] was put at a Ki of 5.7 µM. Besides, the 50% inhibitory concentration (IC50) in data set [2] was determined as 0.84 µM.
The corresponding values for `COc1ccc(CNC(=O)[C@H]2CCC[C@@H]2C(=O)NCc2ccc(-c3ccccc3S(N)(=O)=O)cc2)cc1` (racemic) are 12 µM and 5 µM.
Regarding `NS(=O)(=O)c1ccccc1-c1ccc(CNC(=O)[C@H]2CCC[C@@H]2C(=O)NCc2ccc([N+](=O)[O-])cc2)cc1` (racemic), the affinity in data set [1] corresponds to a Ki of 2 µM. Further, in data set [2], the IC50 came out at 2.8 µM.
Taken in the same sequence, the figures for `NS(=O)(=O)c1ccccc1-c1ccc(CNC(=O)[C@H]2CCCC[C@@H]2C(=O)NCc2ccc(-c3cccs3)s2)cc1` (racemic) were 2.1 µM and 1.4 µM.
For the compound `CN(Cc1ccc(-c2ccccc2S(N)(=O)=O)cc1)C(=O)[C@H]1CCC[C@@H]1C(=O)NCc1ccc(-c2cccs2)s1` (racemic), in data set [3], the bioavailability amounted to 3.3%. The clearance in data set [4] amounted to 13 mL/min/kg. The half-life in data set [5] was 72 min. In data set [2], this compound came in with a half-inhibitory concentration (IC50) of 0.76 µM.
With `CN(Cc1ccc(-c2ccccc2S(N)(=O)=O)cc1)C(=O)[C@H]1CCC[C@@H]1C(=O)NCc1ccc(OC(F)(F)F)cc1` (racemic), the bioavailability in data set [3] is 44%. Besides, the clearance in data set [4] was found to be 14 mL/min/kg. The compound also gave a half-life in data set [5] of 58.8 min. Also, the Ki in data set [1] turned out to be 0.21 µM. For the same compound, in data set [2], inhibition was half-maximal at 0.83 µM (IC50).
The compound `NS(=O)(=O)c1ccccc1-c1ccc(CNC(=O)[C@H]2CCC[C@@H]2C(=O)NCc2ccc(-c3ccccc3)cc2)cc1` (racemic) displayed a Ki in data set [1] of 0.03 µM. Half-maximal inhibition in data set [2] (IC50) was put at 0.66 µM.
The corresponding values for `NS(=O)(=O)c1ccccc1-c1ccc(CNC(=O)[C@H]2CCC[C@H]2C(=O)NCc2ccc(-c3cccs3)s2)cc1` (racemic) are 0.67 µM and 1.6 µM.
Taken in the same sequence, the figures for `COc1ccc(CNC(=O)[C@H]2CCC[C@@H]2C(=O)N(C)Cc2ccc(-c3ccccc3S(N)(=O)=O)cc2)cc1` (racemic) were 2.1 µM and 10 µM.
